Results published in patent publication US20240092758A1, “IMIDAZOLO INDAZOLE COMPOUNDS AS JAK INHIBITORS” (Theravance Biopharma R&D IP, LLC, priority 2021, published 2024).

Key:
[1] = test system: IL-13 induced STAT6 phosphorylation in BEAS-2B human lung epithelial cells; experiment: Cellular JAKI potency assay (BEAS-2B); type: cell-based; conditions: Homo sapiens, BEAS-2B, BEAS-2B cells, read-out: BEAS2B pIC50 (converted)
Method: The JAKI cellular potency assay was carried out by measuring inhibition of interleukin-13 (IL-13, R&D Systems) induced STAT6 phosphorylation in BEAS-2B human lung epithelial cells (ATCC). BEAS-2B cells were grown at 37° C. in a 5% CO2 humidified incubator in 50% DMEM/50% F-12 medium (Life Technologies) supplemented with 10% FBS (Hyclone), 100 U/mL penicillin, 100 μg/mL streptomycin (Life Technologies), and 2 mM GlutaMAX (Life Technologies). On day 1 of the assay, cells were seeded at a 7,500 cells/well density in white poly-D-lysine-coated 384-well plates (Corning) with 25 μL medium and were allowed to adhere overnight in the incubator. On day 2 of the assay, the medium was removed and replaced with 12 μL of assay buffer (Hank's Balanced Salt Solution/HBSS, 25 mM HEPES, and 1 mg/ml bovine serum albumin/BSA) containing dose-responses of test compounds. Compounds were serially diluted in DMSO and then diluted another 1000-fold in media to bring the final DMSO concentration to 0.1%. Cells were incubated with test compounds at 37° C. for 1 h and followed by the addition of 12 μl of pre-warmed IL-13 (80 ng/mL in assay buffer) for stimulation. After incubating at 37° C. for 30 min, the assay buffer (containing compound and IL-13) was removed, and 10 μL of cell lysis buffer (25 mM HEPES, 0.1% SDS, 1% NP-40, 5 mM MgCl2, 1.3 mM EDTA, 1 mM EGTA, supplemented with Complete Ultra mini protease inhibitors and PhosSTOP from Roche Diagnostics). The plates were shaken at ambient temperature for 30 min before the addition of detection reagents. Levels of pSTAT6 were measured using the AlphaLISA SureFire Ultra pSTAT6 (Tyr641) assay kit from PerkinElmer. For dose-response analysis, percent inhibition data were plotted vs. compound concentrations, and IC50 values were determined from a 4-parameter robust fit model with the Graphpad Prism software. Results are expressed as the negative logarithm of the IC50 value, pIC50.
Test compounds having a lower IC50 value or higher pIC50 value in this assay show greater inhibition of IL-13 induced STAT6 phosphorylation.

JAK2 = JAK2 (Homo sapiens (Human), UniProt O60674); experiment: Biochemical JAK kinase assay (LanthaScreen), JAK2; conditions: for Ki: read-out: JAK2 pKi (converted)
Method: (§1) A panel of four LanthaScreen JAK biochemical assays (JAK1, 2, 3 and Tyk2) were carried in a common kinase reaction buffer (50 mM HEPES, pH 7.5, 0.01% Brij-35, 10 mM MgCl2, and 1 mM EGTA). Recombinant GST-tagged JAK enzymes and a GFP-tagged STAT1 peptide substrate were obtained from Life Technologies.
(§2) Serially diluted compounds were pre-incubated with each of the four JAK enzymes and the substrate in white 384-well microplates (Corning) at ambient temperature for 1 h. ATP was subsequently added to initiate the kinase reactions in 10 μL total volume, with 1% DMSO. The final enzyme concentrations for JAK1, 2, 3 and Tyk2 are 4.2 nM, 0.1 nM, 1 nM, and 0.25 nM respectively; the corresponding Km ATP concentrations used are 25 μM, 3 μM, 1.6 μM, and 10 μM; while the substrate concentration is 200 nM for all four assays. Kinase reactions were allowed to proceed for 1 hour at ambient temperature before a 10 μL preparation of EDTA (10 mM final concentration) and Tb-anti-pSTAT1 (pTyr701) antibody (Life Technologies, 2 nM final concentration) in TR-FRET dilution buffer (Life Technologies) was added. The plates were allowed to incubate at ambient temperature for 1 h before being read on the EnVision reader (Perkin Elmer). Emission ratio signals (520 nm/495 nm) were recorded and utilized to calculate the percent inhibition values based on DMSO and background controls.
(§3) For dose-response analysis, percent inhibition data were plotted vs. compound concentrations, and IC50 values were determined from a 4-parameter robust fit model with the Prism software (GraphPad Software). Results were expressed as pIC50 (negative logarithm of IC50) and subsequently converted to pKi (negative logarithm of dissociation constant, Ki) using the Cheng-Prusoff equation.
(§4) Test compounds having a lower Ki value or higher pKi value in the four JAK assays show greater inhibition of JAK activity.

JAK1 = JAK1 (Homo sapiens (Human), UniProt P23458); experiment: Biochemical JAK kinase assay (LanthaScreen), JAK1; conditions: for Ki: read-out: JAK1 pKi (converted)
Method: as §1, §2, §3, §4

Chain of JAK1 (P23458 whole entry): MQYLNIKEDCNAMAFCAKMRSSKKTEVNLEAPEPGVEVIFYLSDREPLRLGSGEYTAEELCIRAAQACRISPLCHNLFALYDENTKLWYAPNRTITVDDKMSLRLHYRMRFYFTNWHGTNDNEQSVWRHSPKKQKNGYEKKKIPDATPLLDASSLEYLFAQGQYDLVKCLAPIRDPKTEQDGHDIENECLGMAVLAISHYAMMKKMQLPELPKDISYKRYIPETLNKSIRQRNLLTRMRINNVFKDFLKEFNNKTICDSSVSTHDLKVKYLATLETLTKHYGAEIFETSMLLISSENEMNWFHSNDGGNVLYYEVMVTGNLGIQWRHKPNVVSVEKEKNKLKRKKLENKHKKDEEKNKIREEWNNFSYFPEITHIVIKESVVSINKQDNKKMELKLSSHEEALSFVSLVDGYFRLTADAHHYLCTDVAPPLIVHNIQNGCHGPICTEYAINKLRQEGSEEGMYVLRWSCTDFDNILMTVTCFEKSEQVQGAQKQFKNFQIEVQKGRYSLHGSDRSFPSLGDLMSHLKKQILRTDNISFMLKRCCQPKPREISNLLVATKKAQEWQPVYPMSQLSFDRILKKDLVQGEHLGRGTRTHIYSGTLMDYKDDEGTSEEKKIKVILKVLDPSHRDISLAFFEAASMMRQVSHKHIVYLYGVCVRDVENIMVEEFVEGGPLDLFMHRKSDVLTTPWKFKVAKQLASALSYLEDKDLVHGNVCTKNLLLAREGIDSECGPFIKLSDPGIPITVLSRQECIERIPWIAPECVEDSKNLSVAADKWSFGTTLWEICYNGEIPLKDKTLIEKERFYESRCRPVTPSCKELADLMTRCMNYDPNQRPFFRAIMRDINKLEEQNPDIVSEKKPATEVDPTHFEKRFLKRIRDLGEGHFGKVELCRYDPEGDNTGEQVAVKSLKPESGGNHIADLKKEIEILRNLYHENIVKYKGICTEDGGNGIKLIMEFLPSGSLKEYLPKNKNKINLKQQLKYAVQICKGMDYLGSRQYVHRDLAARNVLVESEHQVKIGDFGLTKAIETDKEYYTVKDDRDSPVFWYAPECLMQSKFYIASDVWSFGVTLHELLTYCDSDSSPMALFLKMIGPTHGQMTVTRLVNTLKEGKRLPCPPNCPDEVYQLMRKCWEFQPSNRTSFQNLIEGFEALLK
Chain of JAK2 (O60674 whole entry): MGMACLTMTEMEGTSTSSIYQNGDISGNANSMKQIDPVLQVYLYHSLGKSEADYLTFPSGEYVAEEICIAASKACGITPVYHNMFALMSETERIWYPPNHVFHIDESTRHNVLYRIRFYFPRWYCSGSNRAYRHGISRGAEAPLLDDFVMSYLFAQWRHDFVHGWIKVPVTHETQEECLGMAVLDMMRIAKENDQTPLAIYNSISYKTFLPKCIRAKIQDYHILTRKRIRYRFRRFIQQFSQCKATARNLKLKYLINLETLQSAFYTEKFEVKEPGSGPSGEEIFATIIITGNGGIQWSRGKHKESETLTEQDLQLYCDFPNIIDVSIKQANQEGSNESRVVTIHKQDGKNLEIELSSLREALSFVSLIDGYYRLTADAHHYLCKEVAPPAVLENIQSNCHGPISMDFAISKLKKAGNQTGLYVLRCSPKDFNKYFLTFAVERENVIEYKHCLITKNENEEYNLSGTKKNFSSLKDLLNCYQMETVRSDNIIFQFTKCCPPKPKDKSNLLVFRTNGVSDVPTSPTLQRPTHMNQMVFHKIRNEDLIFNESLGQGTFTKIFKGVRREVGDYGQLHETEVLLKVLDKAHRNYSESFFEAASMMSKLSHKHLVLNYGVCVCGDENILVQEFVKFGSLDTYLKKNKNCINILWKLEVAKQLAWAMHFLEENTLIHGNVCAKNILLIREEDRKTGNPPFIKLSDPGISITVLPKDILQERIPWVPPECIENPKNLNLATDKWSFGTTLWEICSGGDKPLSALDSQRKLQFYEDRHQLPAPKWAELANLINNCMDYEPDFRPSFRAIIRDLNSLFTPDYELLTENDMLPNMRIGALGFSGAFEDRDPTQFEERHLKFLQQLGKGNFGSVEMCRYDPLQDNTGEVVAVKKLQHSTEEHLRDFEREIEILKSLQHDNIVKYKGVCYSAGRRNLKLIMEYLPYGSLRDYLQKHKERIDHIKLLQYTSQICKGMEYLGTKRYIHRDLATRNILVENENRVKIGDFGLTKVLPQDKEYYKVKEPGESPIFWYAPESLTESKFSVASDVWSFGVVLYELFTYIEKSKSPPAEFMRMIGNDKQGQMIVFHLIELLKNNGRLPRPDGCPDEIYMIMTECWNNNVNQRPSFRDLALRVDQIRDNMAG

Structure (SMILES)	IC50 [1]	Ki (JAK2)	Ki (JAK1)	JAK2 pKi (JAK2)	JAK1 pKi (JAK1)
CCc1cc(O)ccc1-c1ccc2c(-c3nc(C4=C[C@@H](C)N[C@@H](C)C4)c[nH]3)n[nH]c2c1 (racemic) [Example 366]	31.6 to 100 nM	0.1 to 1 nM	0.1 to 1 nM		
CCc1cc(O)ccc1-c1ccc2c(-c3nc(C4=CCCN(C5CC(O)C5)C4)c[nH]3)n[nH]c2c1F (stereo not drawn) [Compound 10, 3-ethyl-4-(7-fluoro-3-(4-(1-(3-hydroxycyclobutyl)-1,2,5,6-tetrahydropyridin-3-yl)-1H-imidazol-2-yl)-1H-indazol-6-yl)phenol]	10 to 31.6 nM	0.1 to 1 nM	0.1 to 1 nM		
CCc1cc(O)ccc1-c1ccc2c(-c3nc(C4=CCN(Cc5cn[nH]c5)CC4)c[nH]3)n[nH]c2c1F [Compound 11, 4-(3-(4-(1-((1H-pyrazol-4-yl)methyl)-1,2,3,6-tetrahydropyridin-4-yl)-1H-imidazol-2-yl)-7-fluoro-1H-indazol-6-yl)-3-ethylphenol]	10 to 31.6 nM		0.1 to 1 nM	A (A represents a pKi value ≥10 (Ki≤0.1 nM))	
CCc1cc(O)ccc1-c1ccc2c(-c3nc(C4=CCN(CC(=O)NC)CC4)c[nH]3)n[nH]c2c1F [Compound 12, 2-(4-(2-(6-(2-ethyl-4-hydroxyphenyl)-7-fluoro-1H-indazol-3-yl)-1H-imidazol-4-yl)-3,6-dihydropyridin-1(2H)-yl)-N-methylacetamide]	10 to 31.6 nM	0.1 to 1 nM	0.1 to 1 nM		
CCc1cc(O)ccc1-c1ccc2c(-c3nc(C4=CCCN(C(C)C)C4)c[nH]3)n[nH]c2c1 [Example 28]	3.16 to 10 nM	0.1 to 1 nM	0.1 to 1 nM		
CCc1cc(O)ccc1-c1ccc2c(-c3nc(C4=CCN(CCC(C)(C)O)CC4)c[nH]3)n[nH]c2c1 [Example 35]	3.16 to 10 nM			A (A represents a pKi value ≥10 (Ki≤0.1 nM))	A (A represents a pKi value ≥10 (Ki≤0.1 nM))
CCc1cc(O)ccc1-c1ccc2c(-c3nc(C4=CCN(CCC(C)(C)O)CC4)c[nH]3)n[nH]c2c1F [Example 37]	10 to 31.6 nM	0.1 to 1 nM	0.1 to 1 nM		
CCc1cc(O)ccc1-c1ccc2c(-c3nc(C4=CCN(C[C@@H](C)CO)CC4)c[nH]3)n[nH]c2c1F [Example 39]	10 to 31.6 nM	0.1 to 1 nM	0.1 to 1 nM		
CCc1cc(O)ccc1-c1ccc2c(-c3nc(C4=CCN(C5CC(O)C5)CC4)c[nH]3)n[nH]c2c1F (stereo not drawn) [Example 40]	10 to 31.6 nM			A (A represents a pKi value ≥10 (Ki≤0.1 nM))	A (A represents a pKi value ≥10 (Ki≤0.1 nM))
CCc1cc(O)ccc1-c1ccc2c(-c3nc(C4=CCCN(CCO)C4)c[nH]3)n[nH]c2c1 [Example 41]	3.16 to 10 nM		0.1 to 1 nM	A (A represents a pKi value ≥10 (Ki≤0.1 nM))	
CCc1cc(O)ccc1-c1ccc2c(-c3nc(C4=CCCN(C5CC(O)C5)C4)c[nH]3)n[nH]c2c1 (stereo not drawn) [Example 43]	3.16 to 10 nM		0.1 to 1 nM	A (A represents a pKi value ≥10 (Ki≤0.1 nM))	
CCc1cc(O)ccc1-c1ccc2c(-c3nc(C4=CCCN(C(C)CO)C4)c[nH]3)n[nH]c2c1F (stereo not drawn) [Example 46]	10 to 31.6 nM	0.1 to 1 nM	0.1 to 1 nM		
CCc1cc(O)ccc1-c1ccc2c(-c3nc(C4=CCCN(C[C@H](C)CO)C4)c[nH]3)n[nH]c2c1F [Example 48]	10 to 31.6 nM	0.1 to 1 nM	0.1 to 1 nM		
CCc1cc(O)ccc1-c1ccc2c(-c3nc(C4=CCCN(C[C@@H](C)CO)C4)c[nH]3)n[nH]c2c1F [Example 49]	10 to 31.6 nM	0.1 to 1 nM	0.1 to 1 nM		
CCc1cc(O)ccc1-c1ccc2c(-c3nc(C4=CCN(C5CC(O)C5)C4)c[nH]3)n[nH]c2c1 (stereo not drawn) [Example 52]	3.16 to 10 nM			A (A represents a pKi value ≥10 (Ki≤0.1 nM))	A (A represents a pKi value ≥10 (Ki≤0.1 nM))
CCc1cc(O)ccc1-c1ccc2c(-c3nc(C4=CCN(CCC(C)(C)O)C4)c[nH]3)n[nH]c2c1F [Example 55]	3.16 to 10 nM			A (A represents a pKi value ≥10 (Ki≤0.1 nM))	A (A represents a pKi value ≥10 (Ki≤0.1 nM))
CCc1cc(O)ccc1-c1ccc2c(-c3nc(C4=CCN(CCCOC)CC4)c[nH]3)n[nH]c2c1 [Example 56]	3.16 to 10 nM			A (A represents a pKi value ≥10 (Ki≤0.1 nM))	A (A represents a pKi value ≥10 (Ki≤0.1 nM))
CCc1cc(O)ccc1-c1ccc2c(-c3nc(C4=CCN(C(C)C5CC(O)C5)CC4)c[nH]3)n[nH]c2c1F (stereo not drawn) [Example 58]	3.16 to 10 nM			A (A represents a pKi value ≥10 (Ki≤0.1 nM))	A (A represents a pKi value ≥10 (Ki≤0.1 nM))
CCc1cc(O)ccc1-c1ccc2c(-c3nc(C4=CCN(CCCOC)CC4)c[nH]3)n[nH]c2c1F [Example 59]	10 to 31.6 nM	0.1 to 1 nM	0.1 to 1 nM		
CCc1cc(O)ccc1-c1ccc2c(-c3nc(C4=CCN(CC5COC5)CC4)c[nH]3)n[nH]c2c1F [Example 60]	10 to 31.6 nM		0.1 to 1 nM	A (A represents a pKi value ≥10 (Ki≤0.1 nM))	
CCc1cc(O)ccc1-c1ccc2c(-c3nc(C4=CCN(C5CCOCC5)CC4)c[nH]3)n[nH]c2c1F [Example 61]	10 to 31.6 nM		0.1 to 1 nM	A (A represents a pKi value ≥10 (Ki≤0.1 nM))	
CCc1cc(O)ccc1-c1ccc2c(-c3nc(C4=CCN(CC5CCCO5)CC4)c[nH]3)n[nH]c2c1F (stereo not drawn) [Example 62]	10 to 31.6 nM		0.1 to 1 nM	A (A represents a pKi value ≥10 (Ki≤0.1 nM))	
CCc1cc(O)ccc1-c1ccc2c(-c3nc(C4=CCN(CC5CCCOC5)CC4)c[nH]3)n[nH]c2c1F (stereo not drawn) [Example 63]	10 to 31.6 nM	0.1 to 1 nM	0.1 to 1 nM		
CCc1cc(O)ccc1-c1ccc2c(-c3nc(C4=CCCN(CCCOC)C4)c[nH]3)n[nH]c2c1 [Example 65]	3.16 to 10 nM	0.1 to 1 nM	0.1 to 1 nM		
CCc1cc(O)ccc1-c1ccc2c(-c3nc(C4=CCCN(C(C)C5CC(O)C5)C4)c[nH]3)n[nH]c2c1F (stereo not drawn) [Example 66]	10 to 31.6 nM		0.1 to 1 nM	A (A represents a pKi value ≥10 (Ki≤0.1 nM))	
CCc1cc(O)ccc1-c1ccc2c(-c3nc(C4=CCCN(CCCOC)C4)c[nH]3)n[nH]c2c1F [Example 67]	10 to 31.6 nM	0.1 to 1 nM	0.1 to 1 nM		
CCc1cc(O)ccc1-c1ccc2c(-c3nc(C4=CCCN(CC5COC5)C4)c[nH]3)n[nH]c2c1F [Example 68]	10 to 31.6 nM	0.1 to 1 nM	0.1 to 1 nM		
CCc1cc(O)ccc1-c1ccc2c(-c3nc(C4=CCCN(C(=O)[C@@H](N)C(C)(C)O)C4)c[nH]3)n[nH]c2c1 [Example 165]	10 to 31.6 nM		0.1 to 1 nM		
CCc1cc(O)ccc1-c1ccc2c(-c3nc(C4=C[C@H](CO)N(CCS(C)(=O)=O)C4)c[nH]3)n[nH]c2c1F [Example 279]	31.6 to 100 nM		0.1 to 1 nM		
CCc1cc(O)ccc1-c1ccc2c(-c3nc(C4=C[C@H](CO)N(CCS(=O)(=O)NC)C4)c[nH]3)n[nH]c2c1F [Example 280]	100 to 316 nM			A (A represents a pKi value ≥10 (Ki≤0.1 nM))	
